Active and inactive are the calls of the source. The rule behind the calls is not given here. Bounds are passed on as bounds.

The test system of one experiment is Staphylococcus aureus. Kind of experiment: Antimicrobial activity against Staphylococcus aureus at 50 ug/disk after 48 hrs by paper disk method. The experiment is classed as functional, organism-based.
In another experiment the test system is Salmonella enteritidis. Description: Antimicrobial activity against Salmonella enteritidis at 50 ug/disk after 48 hrs by paper disk method. The experiment is classed as functional, organism-based. As to conditions: Salmonella enterica subsp. enterica serovar Enteritidis.
The next experiment has as its system HL-60. Kind of experiment: Cytotoxicity against human HL60 cells after 96 hrs by WST method. As to conditions: HL-60, 96 h. The experiment is classed as functional, cell-based.
The subject of another experiment is Bacillus cereus. Description: Antimicrobial activity against Bacillus cereus at 50 ug/disk after 48 hrs by paper disk method. The experiment is classed as functional, organism-based.
The next experiment concerns Escherichia coli. Description: Antimicrobial activity against Escherichia coli at 50 ug/disk after 48 hrs by paper disk method. The experiment is classed as functional, organism-based.
Experiment [1] can be described thus: Cytotoxicity against human Hep3B cells after 96 hrs by WST method. The experiment is classed as functional, cell-based, Hep 3B2.
The next experiment deals with K562. Description: Cytotoxicity against human K562 cells after 96 hrs by WST method. The experiment is classed as functional, cell-based. As to conditions: K562, 96 h.
The subject of the next experiment is HeLa. Description: Cytotoxicity against human HeLa cells after 96 hrs by WST method. The experiment is classed as functional, cell-based.

What is called IC50 is the concentration at which inhibition is half-maximal. Low readings indicate inhibition by little substance, high ones a need for much substance. On to `O=C1N[C@@H](Cc2ccccc2)C(=O)N(O)[C@@H]1C[C@]1(O)c2ccccc2N2C(=O)C[C@@H](c3ccccc3)N[C@H]21`, for which the outcome in the experiment on Staphylococcus aureus, in the experiment with Salmonella enteritidis, in the experiment with Bacillus cereus and with Escherichia coli was inactive. Besides, the 50% inhibitory concentration (IC50) (in the experiment on HL-60; in experiment [1]; in the experiment with K562; with HeLa) was greater than 85 µM throughout.

(Values after ChEMBL document CHEMBL3632583, “Haenamindole, an unusual diketopiperazine derivative from a marine-derived Penicillium sp. KCB12F005” (Bioorg Med Chem Lett, 2015).)
